Laboratory results published in US8415310B2, “Isoxazoline derivatives as antiparasitic agents” (AH USA 42 LLC, priority 2010, dated 2013).

Experiments:
Lepeophtheirus salmonis = experiment: Copepod (Lepeophtheirus salmonis) BioAssay; format: in vivo; settings: pre-adult/adult salmon lice exposed for 24 hours in sea water
Description: Copepod (Lepeophtheirus salmonis) BioAssay
Two Formula (1) compounds were dissolved in sea water. Negative control was sea water and positive control was emamectin benzoate. Ten pre-adult/adult salmon lice were exposed for 24 hours. Lice were monitored for motility and endpoint data was recorded as an Effective Concentration 100% (EC^100) based on immotility.

Ctenocephalides felis = experiment: Flea (Ctenocephalides felis) Membrane Feed Assay-Adult; format: in vivo
Description: Flea (Ctenocephalides felis) Membrane Feed Assay-Adult
Comparative Data: Flea Feed Assay
Comparator compounds T1 and T2 were tested in the flea feed assay, as described above, and are compared to Examples 39 and 43, respectively. The compounds T1 (WO2008/122375) and T2 (US2009/0156643) represent the closet exemplified art. The data represents the 24 hour time period. Endpoint data were recorded as an lethal dose 90% (LD^90) in μg/mL. […] Comparator compounds T1 and T2 both had LD^90 values of >30 […].

[1] = comparative data, flea feed assay, 24 hour time period

Structure (SMILES): CC(C)C(=O)N1CC(F)(c2ccc(C3=NOC(c4cc(Cl)c(F)c(Cl)c4)(C(F)(F)F)C3)cc2)C1 (single isomer, unassigned) [Example 177, 5-(3,5-dichloro-4-fluorophenyl)-3-[4-(3-fluoro-1-isobutyrylazetidin-3-yl)phenyl]-5-(trifluoromethyl)-4,5-dihydroisoxazole]
- Effective Concentration 100% (EC^100) based on immotility (Lepeophtheirus salmonis): 50 ppb

Structure (SMILES): O=C(CC(F)(F)F)N1CC(F)(c2ccc(C3=NOC(c4cc(Cl)cc(Cl)c4)(C(F)(F)F)C3)cc2)C1 (centres unmarked) [Example 43, 1-(3-(4-(5-(3,5-Dichlorophenyl)-5-(trifluoromethyl)-4,5-dihydroisoxazol-3-yl)phenyl)-3-fluoroazetidin-1-yl)-3,3,3-trifluoropropan-1-one]
- lethal dose 90% (LD^90) (Ctenocephalides felis; [1]): ≤ 1 µg/mL

Structure (SMILES): O=C(CC(F)(F)F)N1CC(F)(c2ccc(C3=NOC(c4cc(Cl)c(F)c(Cl)c4)(C(F)(F)F)C3)cc2)C1 (racemic) [Example 19, 1-(3-(4-(5-(3,5-dichloro-4-fluorophenyl)-5-(trifluoromethyl)-4,5-dihydroisoxazol-3-yl)phenyl)-3-fluoroazetidin-1-yl)-3,3,3-trifluoropropan-1-one]
- Effective Concentration 100% (EC^100) based on immotility (Lepeophtheirus salmonis): 50 ppb

Structure (SMILES): CC(=O)N1CC(F)(c2ccc(C3=NOC(c4cc(Cl)cc(Cl)c4)(C(F)(F)F)C3)cc2)C1 (centres unmarked) [Example 39, 1-(3-(4-(5-(3,5-Dichlorophenyl)-5-(trifluoromethyl)-4,5-dihydroisoxazol-3-yl)phenyl)-3-fluoroazetidin-1-yl)ethanone]
- lethal dose 90% (LD^90) (Ctenocephalides felis; [1]): ≤ 3 µg/mL

Structure (SMILES): O=C(NC1CC1)N1CC(F)(c2ccc(C3=NOC(c4cc(Cl)cc(Cl)c4)(C(F)(F)F)C3)cc2)C1 (centres unmarked) [Example 10, N-cyclopropyl-3-(4-(5-(3,5-dichlorophenyl)-5-(trifluoromethyl)-4,5-dihydroisoxazol-3-yl)phenyl)-3-fluoroazetidine-1-carboxamide]
- lethal dose 90% (LD^90) (Ctenocephalides felis; adult fleas fed on treated citrated bovine blood approximately 2 hours, knockdown and/or death at approximately 2 and 24 hours): ≤ 0.03 µg/mL
